Reference: ChEMBL document CHEMBL1143232, “Antiviral activities against herpes simplex virus type 1 by HPH derivatives and their structure-activity relationships” (Bioorg Med Chem Lett, 2008)
pEC50: −log10 of the molar value.

What was measured:
Human alphaherpesvirus 1 = test: Antiviral activity against HSV1 KOS in african green monkey Vero cells by plaque reduction assay; assay type: functional, organism-based; details: Human alphaherpesvirus 1, KOS
[1] = Cytotoxicity against african green monkey Vero cells after 69 hrs by Alamar blue assay; assay type: cell-based; details: chlorocebus sabaeus
[2] = Partition coefficient, log P of the compound; assay type: physicochemical; details: octanol/water
[3] = Ratio of CC50 for african green monkey Vero cells to EC50 for HSV1 KOS; assay type: functional

| SMILES | pEC50 (Human alphaherpesvirus 1) | CC50 at 69 h [1] [µM] | logP [2] | Ratio CC50/EC50 [3] |
| --- | --- | --- | --- | --- |
| O=C(O)CCNC(=O)c1cc(-c2cccc3ccccc23)cc(C(=O)NCCC(=O)O)n1 | < 4.00 | > 100 | – | – |
| O=C(CCNC(=O)c1cccc(C(=O)NCCC(=O)NO)n1)NO | < 4.00 | > 100 | – | – |
| COC(=O)C(Cc1c[nH]cn1)NCc1cc(N(C)C)cc(C(=O)NC(Cc2c[nH]cn2)C(=O)OC)n1 (configuration not stated) | < 4.00 | > 100 | – | – |
| CC(C)(C)SCCNC(=S)c1cccc(C(=S)NCCSC(C)(C)C)n1 | 4.82 | 37 | 4.4 | 2.5 |
| CC(C)(C)SCCNC(=O)c1cccc(C(=O)NCCSC(C)(C)C)n1 | 4.10 | 500 | 2.7 | 6.3 |
| CSCCNC(=O)c1cccc(C(=O)NCCSC)n1 | < 4.00 | > 100 | – | – |
| O=C(O)CCNC(=O)c1cccc(C(=O)NCCC(=O)O)n1 | < 4.00 | > 100 | – | – |
| O=C(CCNC(=O)c1cc(-c2cccc3ccccc23)cc(C(=O)NCCC(=O)NO)n1)NO | < 4.00 | > 100 | – | – |
| Nc1nc2c(ncn2COCCO)c(=O)[nH]1 [ACYCLOVIR] | 5.22 | > 100 | – | – |
